Consider 1 sequence from publication PMC10630888, “Nuclear ERK1/2 signaling potentiation enhances neuroprotection and cognition via Importinα1/KPNA2” (EMBO Molecular Medicine, 2023).

Values joined by “and” are separate entries in the source; they are usually repeats but may differ in a detail not shown here. Equal entries are not always repeated.

One data set deals with p-ERK in dorsal striatum. As to the kind of experiment: In vivo time course of striatal pERK after RB5. Also on record: species or system mouse. The settings on record: mice, acute systemic administration, 20 mg/kg i.p. On the procedure:
For the dose response study, 2‐month‐old CD1 male mice were injected with different doses of RB5 (1, 2.5, 5, 10, and 20 mg/kg, i.p.), whereas the control group was injected with 20 mg/kg (i.p.) of SCR peptide. Mice were perfused 1 h later with 4% PFA. For the time course study, mice were injected i.p. with 20 mg/kg of RB5 and perfused at different time points with 4% PFA (1, 3, 6, and 12 h). The control group was injected i.p. with 20 mg/kg of SCR. Brains were postfixed in 4% PFA for 24 h and cryoprotected overnight in sucrose 30% before immunohistochemistry against phospho‐ERK1/2.
Immunohistochemistry was performed as described in Papale et al ([2016]). […]
For in vivo immunohistochemistry experiments, images were acquired from the dorsal striatum using a Leica DM IRB microscope under a 20× objective. The number of p‐ERK, p‐MSK‐1, p‐ELK, p‐MEK‐1, p‐VG K+, c‐Fos, and DARPP‐32 positive cells was counted in 2–3 consecutive sections per mouse, bilaterally and averaged across the sections using the ImageJ software by a blind investigator to the condition. Estimation of nigral cell loss was assessed by quantifying the number of TH‐immunopositive neurons of the SNc in 360 μm‐spaced sections for each animal.

In a further data set the test system is mutant huntingtin (mHtt). As to the kind of experiment: Mutant huntingtin inclusions in striatum of zQ175 females after RB5. The note with it: RB5 for 9 days. Format: in vivo, mouse. On the procedure:
Immunofluorescence was performed as described in Papale et al ([2016]). Briefly, 1 h after blocking in 5% normal goat serum, slices were incubated overnight at 4°C with the following primary antibodies: anti‐phospho (Ser10)‐acetylated (Lys14) histone H3 (1:1,000, Millipore), anti‐phospho‐S6 ribosomal protein (Ser235/236) (1:200, Cell Signaling Technology) anti‐phospho‐S6 ribosomal protein (Ser240/244) (1:200, Cell Signaling), cleaved caspase‐3 (1:200, Cell Signaling Technology), anti‐mutant Huntingtin (1:100, Developmental Studies Hybridoma Bank, University of Iowa, #MW8), and NeuN (1:1,000, Millipore). […]
In ex‐vivo and in‐vivo immunofluorescence experiments, the number of p‐S6 or p‐AcH3 immunoreactive neurons among NeuN‐positive neurons was counted in 2–3 consecutive striatal sections per mouse in four fields per section. Caspase 3‐positive cells were quantified among NeuN‐positive neurons in each slide and expressed as percentage (ratio between caspase‐3‐positive cells and total NeuN‐positive neurons) for each field acquired through the slide. The number of cells showing mutant Huntingtin inclusions were expressed as a percentage of mutant Huntingtin‐positive cells among DAPI‐positive cells. […]

In another data set the test system is cleaved caspase-3. Put plainly: Cleaved caspase-3 in dentate gyrus of Tg2576 mice. Format: in vivo, mouse. The note with it: for cleaved caspase-3 in dentate gyrus (Fig 5 panel l): individual animals.

Take “GRKKRRQRRRPPQGGGGGEPRRTEGVGPGVPGEVEMVKGQPFDV [RB5, six D-amino acids, acetylated N-terminus]”: in the data set on p-ERK in dorsal striatum, the “half-life (suggested by duration of striatal ERK phosphorylation)” value fell in the range of 6 to 12 h. For the same sequence, in the data set with mutant huntingtin (mHtt), the “mHtt aggregation in striatum” value is on record as “insufficient to attenuate the mHtt aggregation”. The “Preapoptotic phenotype measured by caspase-3” value in the data set with cleaved caspase-3 (Tg2576 mice, 7 months old, 20 mg/kg i.p. for 7 days) is “significantly reduced the preapoptotic phenotype”. In addition, the “cleaved caspase-3 in dentate gyrus (Fig 5 panel l)” value in the data set with cleaved caspase-3 (Tg2576 mice) was 0.77 and 0.91 and 0.62 and 1.34 and 0.79 and 1.19 and 1.3; in the data set with cleaved caspase-3 (WT mice), 0.76 and 0.9 and 0.39 and 0.92 and 0.68 and 0.62 and 0.56 and 0.58 and 0.59.
